In one assay the test system is pFAK. The assay can be described thus: PD analysis in lung tissue, IHC for pFAK. It counts as in vivo, mouse. The procedure:
Mice treated with injections of either DF2156A or sc144 daily were euthanized 24 hours subsequent to their 14th dose of drug. Lungs harvested from those mice were processed using standard FFPE, then sectioned and stained with IHC for either pFAK (downstream of IL-8) or pSTAT3 (downstream of IL-6).
To evaluate the functional importance of IL-6 and IL-8 pathways to OS lung metastasis, the present inventors used the xenograft models. Balb-SCID mice inoculated via tail vein with 1×10^6 luciferase-labeled OS-17 cells received treatment with sc144 (the gp130 inhibitor), DF2156A (the CXCR1/2 inhibitor), or both. Mice continued to receive treatment for 42 days, after which treatment stopped. Intravital imaging for in vivo assessment of tumor burden was performed at 14 and 24 days using standard bioluminescent techniques. […] Two mice from each single-agent treatment group were euthanized 24 hours after the 14th dose of drug to perform pharmacodynamics (PD) assessment of target inhibition.

The next assay relates to OS-17 cells. The assay can be described thus: Transwell migration and invasion assays, serum as chemoattractant, small molecule inhibitors. It counts as cell-based, human. The settings on record: 24 hours. How it is done:
OS cells were cultured on a transwell chamber membrane, then subjected transferred to a chamber containing RPMI with 2.5% FBS (pos ctl) or RPMI alone (neg ctl). Other wells containing 2.5% FBS in the bottom chamber were treated with 1 uM sc144, 10 nM D[…], or both. After 24 hours, top chambers were scraped clean, membranes stained and cells counted. Transwell migration and invasion assays. 1×10^4 OS cells were plated into transwell inserts (either Falcon #353097 for migration or Corning #354483 for Matrigel invasion assays) containing appropriate chemotactic factors. After 24 hours of incubation, transwells were drained and upper chambers/membrane upper surfaces scraped using a polyester swab. Membranes were stained using a Dif-Quik Stain Set (Siemens #B4132-1A) and dried, then imaged on an inverted microscope. Cells were quantified using Adobe Photoshop counting tools. For experiments involving IL-6 and IL-8 chemotaxis, media contained 1% FBS in both chambers, with recombinant protein added to the bottom chamber to make 50 ng/ml IL6 (BioLegend #570804) or 100 ng/ml IL-8 (BioLegend #574204). For experiments using serum as a chemoattractant, top chambers contained RPMI only, while bottom chambers contained 1% or 2.5% serum. Where noted, 20 ug/ml of neutralizing antibodies to either IL6 (Abcam #AB6672), IL-8 (Abcam #AB18672), or both were added to both upper and lower chambers. […]

“Also recorded” adds a separate entry of the source.

One compound from US11660291B2, “IL-8 inhibitors for use in the treatment of some sarcomas” (Dompe' Farmaceutici S.P.A., priority 2017, dated 2023) can be followed below.

Take `C[C@@H](C(=O)NS(C)(=O)=O)c1ccc(OS(=O)(=O)C(F)(F)F)cc1` [DF2156A]: the “pFAK IHC staining in lung (target inhibition, downstream of IL-8)” value with pFAK (24 hours after the 14th daily dose (dosing trough)) is “sustained target inhibition; also recorded: reduced the amount of activation seen”. In addition, the “number of infiltrating cells in lung” value in the assay on pFAK (24 hours after the 14th daily dose (trough concentrations)) is “reduced”. The “directional migration and invasion” value in the assay on OS-17 cells (serum (2.5% FBS) as chemoattractant, 1 uM sc144, 10 nM DF2156A (FIG. 2)) is “suffices to prevent directional migration and invasion”. Moreover, in the assay with OS-17 cells (serum as chemoattractant, transwell), the “amount of migration of OS cells” value is “significantly decreased the amount of migration”.
